# Earlier results in publication PMC12650809, “Evolving Therapeutic Landscape of ROS1-Positive Non-Small Cell Lung Cancer: An Updated Review” (Current Oncology, 2025).
# Where two headings read alike, the source gives them in different places. Marks after values point to notes of the source that are not given here.
# Key:
# [1] = test system: ROS1^G2032R and D2033N mutations; details: preclinical, in vitro
# [2] = test system: ROS1^L2086F; parameters: method as in PMID 38070596; details: L2086F, ATP-binding pocket
# [3] = test system: ROS1-positive NSCLC
# [4] = test system: ROS1^G2032R; parameters: method as in PMID 38070596; details: solvent-front substitution
# [5] = test system: advanced ROS1-rearranged NSCLC; parameters: method as in PMID 38197815
# [6] = test system: ROS1-positive NSCLC; parameters: method as in earlier work; details: WCLC 2025 Abstract 4540; for ORR if G2032R Mutation (%): TKI-pretreated patients with G2032R; for IC-ORR (%) / TKI-Pretreated ORR (%) / mPFS (Months): TKI-pretreated patients
# [7] = test system: ROS1-positive NSCLC; remark: listed apart in the source
# [8] = test system: ROS1-positive NSCLC; remark: listed apart in the source
# [9] = test system: ROS1^G2032R mutation; parameters: method as in PMID 36511802; details: preclinical studies
# [10] = test system: wild-type ROS1; parameters: method as in PMID 36511802; details: preclinical studies
# [11] = ROS1 TKI-naïve patients, n = 71
# [12] = previously treated with a ROS1-targeted TKI, n = 56
# [13] = 117 TKI-pretreated patients, WCLC 2025 Abstract 4540
# [14] = TKI-naïve patients, n = 35, preliminary, WCLC 2025 Abstract 4540
# [15] = TKI-naïve patients, preliminary, WCLC 2025 Abstract 4540
# [16] = most common AEs, ref WCLC 2025 Abstract 4540
# [17] = grade ≥ 3, ref WCLC 2025 Abstract 4540
compound,measurement,setting,value
"C[C@H]1CNC(=O)c2cnn3ccc(nc23)N[C@H](C)c2cc(F)ccc2O1 [Repotrectinib, repotrectinib]",inhibitory activity against ROS1^G2032R and D2033N mutations,[1],potent inhibitory activity
same,resistance or activity with L2086F,[2],cross-resistance
same,Notable AEs: dizziness,[3],58%
same,Notable AEs: dysgeusia,[3],50%
same,Notable AEs: paresthesia,[3],30%
same,Discontinuation for AEs (%),[3]; WCLC 2025 Abstract 4540,7%
same,Main Grade ≥ 3 AEs: anemia,[3]; grade ≥ 3,4%
same,Main Grade ≥ 3 AEs: dizziness,[3]; grade ≥ 3,3%
same,resistance or sensitivity with ROS1^G2032R,[4],some sensitivity
same,treatment discontinuation due to AEs,[5],7%
same,response rate,[5]; 17 patients harboring ROS1^G2032R,59%
same,dizziness,"[5]; AEs, mostly grade 1–2",58%
same,dysgeusia,"[5]; AEs, mostly grade 1–2",50%
same,paresthesia,"[5]; AEs, mostly grade 1–2",30%
same,ORR,[5]; [11],79%
same,median DOR,[5]; [11],34.1 months
same,median PFS,[5]; [11],35.7 months
same,intracranial response rate,"[5]; TKI-naïve, measurable BMs at baseline",89%
same,ORR,[5]; [12],38%
same,median PFS,[5]; [12],9 months
same,ORR if G2032R Mutation (%),[6],59%
same,IC-ORR (%),[6],38%
same,TKI-Pretreated ORR (%),[6],38%
same,mPFS (Months),[6],9.0 Months
same,TKI-Naive ORR (%),[7]; TKI-naïve patients,79%
same,mPFS (Months),[7]; TKI-naïve patients,35.7 Months
same,IC-ORR (%),[7]; TKI-naïve patients evaluable for intracranial ORR,89 ^d %
"CCn1ncc2c1-c1cnc(N)c(c1)O[C@H](C)c1cc(F)ccc1-c1nn(C)nc1C2 [Zidesamtinib, zidesamtinib]",12-month DOR rate,[8]; [13],78%
same,ORR,[8]; [13],44%
same,12-month DOR rate,[8]; [14],96%
same,ORR,[8]; [14],89%
same,CNS progression events at data cutoff,[8]; [15],no CNS progression events
same,IC-ORR,[8]; [15],83%
same,intracranial complete responses (number),[8]; [15],four
same,constipation,[8]; [16],17%
same,creatine phosphokinase elevation,[8]; [16],16%
same,dyspnea,[8]; [16],15%
same,fatigue,[8]; [16],16%
same,peripheral edema,[8]; [16],36%
same,treatment discontinuations,"[8]; most common reason: pneumonia, ref WCLC 2025 Abstract 4540",2%
same,dose reductions,[8]; ref WCLC 2025 Abstract 4540,10%
same,IC50,[9],7.9 nM
same,resistance or activity with L2086F,[2],cross-resistance
same,inhibitory activity,[10],subnanomolar
same,Discontinuation for AEs (%),[3]; WCLC 2025 Abstract 4540,2%
same,Notable AEs: constipation,[3]; WCLC 2025 Abstract 4540,17%
same,Notable AEs: peripheral edema,[3]; WCLC 2025 Abstract 4540,36%
same,Main Grade ≥ 3 AEs: CPK elevation,[3]; [17],"CPK elevation (3%), dyspnea (3%)"
same,Main Grade ≥ 3 AEs: dyspnea,[3]; [17],"CPK elevation (3%), dyspnea (3%)"
same,Notable AEs: CPK elevation,[3]; ref WCLC 2025 Abstract 4540,16%
same,Notable AEs: dyspnea,[3]; ref WCLC 2025 Abstract 4540,15%
same,Notable AEs: fatigue,[3]; ref WCLC 2025 Abstract 4540,16%
same,resistance or sensitivity with ROS1^G2032R,[4],some sensitivity
same,ORR if G2032R Mutation (%),[6],83%
same,IC-ORR (%),[6],48%
same,TKI-Pretreated ORR (%),[6],44%
same,mPFS (Months),[6],9.7 Months
